The record followed here is patent publication US20170290328A1, “COMPOSITIONS AND METHODS FOR APPLYING AGRICULTURAL PRODUCTS” (priority 2014, published 2017).

For test [1], the system named is Marestail. The test is described as follows: Additional field trial, Clarity + Roundup PowerMax with adjuvant formulations, weed control. Format: in vivo, Conyza canadensis. Conditions: Clarity tank mixed with Roundup PowerMax, Example 2. The protocol:
Additional field trials were performed that compared Sharpen (active ingredient: saflufenacil ([2-chloro-4-fluoro-5-(3-methyl-2,6-dioxo-4-(trifluoromethyl)-3, 6-dihydro-1(2H)-pyrimidinyl)benzoyl]-N-isopropyl-N-methylsulfamide)) or Clarity (active ingredient: diglycolamine salt of 3,6-dichloro-o-anisic acid) to formulations described herein.

Test [2] relates to Marestail. The test is described as follows: Roundup PowerMax Plus Sharpen Trials, weed control evaluation. In kind it is in vivo. The method, then:
(§1) Each treatment was comprised of a mixture of Roundup PowerMax (glyphosate potassium) at 11 oz/ac plus Sharpen (saflufenacil) diluted and applied at 10 gallons/acre spray volume. A-110 is a polymeric nonionic and alkyl and aryl ethoxylate blend emulsifier commercially available from Adjuvants Unlimited (Tulsa, Okla). Emulsifier “D” is a blend of polyoxyalkenes and ethoxylated castor oil and other components.
(§2) Trials were conducted in Indiana, North Dakota, and Ohio (1 location per state). Weed species varied by location but included glyphosate resistant marestail or kochia. Weed control (herbicide efficacy) evaluations were taken at approximately 7, 14, and 28 days after herbicides were applied.

The test system of test [3] is kochia. The description is as above. In kind it is in vivo. Conditions: North Dakota, 10% methyl salicylate substituted for methylated soybean oil. The method, then:
as §1, §2

Test [4] deals with Marestail. Put plainly: Instigate Trials, weed control evaluation. Format: in vivo. The protocol: (§3) Each treatment was comprised of Instigate applied at 3 oz product/ac, diluted and applied at 10 gallons/acre spray volume.
(§4) Trials were conducted in Indiana, North Dakota, and Ohio (1 location per state).
(§5) Weed species varied by location but included glyphosate resistant marestail or kochia. Weed control (herbicide efficacy) evaluations were taken at approximately 7, 14, and 28 days after herbicides were applied.

For test [5], the system named is kochia. The test is described as follows: Instigate Trials, weed control evaluation. In kind it is in vivo. Conditions: North Dakota, 27 days after treatment, with methylated soybean oil and AU-110 and F emulsifiers. The method, then:
as §3, §4, §5

Test [6] deals with Marestail. The test is described as follows: Paraquat Concentrate Trials, weed control evaluation. In kind it is in vivo. Conditions: Indiana; Paraquat Concentrate Trials (text prints Instigate). The method, then: (§6) Each treatment was comprised of Paraquat Concentrate applied at 0.45 pt product/ac, diluted and applied at 10 gallons/acre spray volume.
as §4, §5

The subject of another test is common lambsquarters. The test is described as above. In kind it is in vivo. The settings on record: North Dakota; Paraquat Concentrate 0.45 pt product/ac. The method, then:
as §6, §4, §5

Another test relates to wheat. Described as above. Format: in vivo. The settings on record: North Dakota; Paraquat Concentrate 0.45 pt product/ac. The method, then:
as §6, §4, §5

In the case of `COC(=O)c1ccccc1O` [methyl salicylate], the “Change of control of glyphosate-resistant marestail (in words)” value in the test with Marestail [1] is “did not increase control”. For the same compound, the “marestail control (in words)” value is listed as “no increase in control” in the test with Marestail [2] (Indiana, Roundup PowerMax 11 oz/ac plus Sharpen); “numerically greater” in the test with Marestail [2] (Ohio, Roundup PowerMax 11 oz/ac plus Sharpen); “greater” in the test on Marestail [2] (Ohio, Roundup PowerMax plus Sharpen, 14 days after treatment, with D emulsifier and F emulsifiers); “did not increase marestail control” in the test on Marestail [4] (Indiana, Instigate 3 oz product/ac); “increased marestail control” in the test with Marestail [4] (Ohio, Instigate, with methylated soybean oil and F emulsifier); “did not increase marestail control” with Marestail [6]. For the same compound, the “kochia control (in words)” value in the test on kochia [3] (with the AU-110 or F emulsifier) is recorded as “not”; with kochia [3] (with the D emulsifier), “increased control”; with kochia [5], “numerically greater”. Further, in the test on common lambsquarters, the “common lambsquarters control (in words)” value is “did not increase control”. Besides, in the test with wheat, the “wheat control (in words)” value is reported as “did not increase control”.
